What all share (format): functional
The target of experiment [1] is Ribosomal protein S6 kinase alpha-3 (Homo sapiens, UniProt P51812).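 Also: measured within a kinome-wide profiling panel.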
Experiment [2] has as its target T1, Calpain-2 catalytic subunit (Sus scrofa, UniProt P43367).
T1 sequence (P43367 whole entry): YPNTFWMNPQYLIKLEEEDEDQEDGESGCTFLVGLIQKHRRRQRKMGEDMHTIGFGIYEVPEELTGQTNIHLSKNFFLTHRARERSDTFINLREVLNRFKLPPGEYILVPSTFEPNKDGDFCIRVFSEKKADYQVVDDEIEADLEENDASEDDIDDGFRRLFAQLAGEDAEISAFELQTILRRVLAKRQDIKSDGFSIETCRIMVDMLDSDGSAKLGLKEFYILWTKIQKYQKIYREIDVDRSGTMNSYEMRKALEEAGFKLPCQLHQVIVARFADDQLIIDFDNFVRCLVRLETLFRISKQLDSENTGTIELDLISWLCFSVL
The experiment in a line: m-calpain protease blockers, concentration series – biochemical, fluorogenic peptide substrate, dose response (AID 1420).

Experiment [3] has as its target T2, Sentrin-specific protease 7 (Homo sapiens, UniProt Q9BQF6).
T2 sequence (Q9BQF6 whole entry): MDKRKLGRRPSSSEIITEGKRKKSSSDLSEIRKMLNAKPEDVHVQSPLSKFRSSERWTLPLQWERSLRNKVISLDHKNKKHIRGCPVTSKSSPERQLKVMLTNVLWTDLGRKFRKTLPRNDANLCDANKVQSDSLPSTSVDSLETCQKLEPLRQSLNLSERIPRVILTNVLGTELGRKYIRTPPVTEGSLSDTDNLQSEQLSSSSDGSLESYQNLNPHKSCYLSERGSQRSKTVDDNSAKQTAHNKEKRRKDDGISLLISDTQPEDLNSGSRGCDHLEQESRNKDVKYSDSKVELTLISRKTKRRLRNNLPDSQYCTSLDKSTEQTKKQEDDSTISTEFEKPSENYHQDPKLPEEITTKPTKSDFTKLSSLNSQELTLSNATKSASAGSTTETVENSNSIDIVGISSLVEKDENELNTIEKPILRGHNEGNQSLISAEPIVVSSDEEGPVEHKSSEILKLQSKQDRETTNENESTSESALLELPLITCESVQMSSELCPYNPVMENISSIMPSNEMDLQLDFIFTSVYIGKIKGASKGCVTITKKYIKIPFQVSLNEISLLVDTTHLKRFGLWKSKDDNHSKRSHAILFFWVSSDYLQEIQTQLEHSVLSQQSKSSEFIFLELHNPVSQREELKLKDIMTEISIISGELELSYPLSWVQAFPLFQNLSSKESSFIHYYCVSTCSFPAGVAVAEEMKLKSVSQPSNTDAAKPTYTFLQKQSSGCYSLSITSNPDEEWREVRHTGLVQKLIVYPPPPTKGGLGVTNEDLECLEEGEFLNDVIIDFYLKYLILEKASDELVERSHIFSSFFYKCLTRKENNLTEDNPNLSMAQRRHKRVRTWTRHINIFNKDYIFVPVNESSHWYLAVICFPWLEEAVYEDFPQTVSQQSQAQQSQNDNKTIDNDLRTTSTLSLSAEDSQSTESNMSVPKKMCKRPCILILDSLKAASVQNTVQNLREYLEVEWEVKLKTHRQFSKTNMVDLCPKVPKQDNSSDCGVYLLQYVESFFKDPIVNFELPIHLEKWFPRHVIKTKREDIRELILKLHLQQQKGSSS
The experiment in a line: inhibition of human SENP7 cleavage activity – biochemical, luminescence, SAR follow-up (AID 504497).

The next experiment concerns the target T3, Protein RecA (Mycobacterium tuberculosis, UniProt P9WHJ3).
T3 sequence (P9WHJ3 whole entry): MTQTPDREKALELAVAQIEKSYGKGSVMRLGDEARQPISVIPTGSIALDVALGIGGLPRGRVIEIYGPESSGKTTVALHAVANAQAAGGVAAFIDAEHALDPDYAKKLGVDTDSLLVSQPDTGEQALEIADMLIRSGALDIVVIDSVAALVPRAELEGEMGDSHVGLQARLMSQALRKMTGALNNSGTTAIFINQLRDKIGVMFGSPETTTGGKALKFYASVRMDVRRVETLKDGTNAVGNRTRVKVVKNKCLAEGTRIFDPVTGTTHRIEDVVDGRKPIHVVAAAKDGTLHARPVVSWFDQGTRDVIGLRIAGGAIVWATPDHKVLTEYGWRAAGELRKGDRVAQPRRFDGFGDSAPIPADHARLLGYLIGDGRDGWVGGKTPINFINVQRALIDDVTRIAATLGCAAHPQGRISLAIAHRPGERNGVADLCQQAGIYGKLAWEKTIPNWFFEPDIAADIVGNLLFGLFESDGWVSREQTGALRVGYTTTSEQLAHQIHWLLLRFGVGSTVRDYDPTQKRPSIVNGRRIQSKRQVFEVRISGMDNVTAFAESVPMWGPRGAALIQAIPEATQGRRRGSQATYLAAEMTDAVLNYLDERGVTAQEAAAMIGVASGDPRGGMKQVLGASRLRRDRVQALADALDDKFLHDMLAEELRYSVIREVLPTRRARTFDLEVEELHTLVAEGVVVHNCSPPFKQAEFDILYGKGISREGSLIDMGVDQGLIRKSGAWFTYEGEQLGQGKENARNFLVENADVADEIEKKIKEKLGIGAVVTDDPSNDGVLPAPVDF
Description: Fluorescence Cell-Free Homogeneous Dose Retest to Identify Inhibitors of RecA-Intein Splicing Activity. [Related pubchem assays (depositor defined):AID2097, AID2223, AID489010, AID492950].

As a reminder, the Ki is the dissociation constant of the complex between target and ligand, obtained from inhibition or displacement. Usually IC50 stands for the midpoint of a concentration-inhibition curve. The term EC50 denotes the midpoint of the concentration-response curve.

Active and inactive are the calls of the source.

Sequence of Ribosomal protein S6 kinase alpha-3 (P51812 whole entry): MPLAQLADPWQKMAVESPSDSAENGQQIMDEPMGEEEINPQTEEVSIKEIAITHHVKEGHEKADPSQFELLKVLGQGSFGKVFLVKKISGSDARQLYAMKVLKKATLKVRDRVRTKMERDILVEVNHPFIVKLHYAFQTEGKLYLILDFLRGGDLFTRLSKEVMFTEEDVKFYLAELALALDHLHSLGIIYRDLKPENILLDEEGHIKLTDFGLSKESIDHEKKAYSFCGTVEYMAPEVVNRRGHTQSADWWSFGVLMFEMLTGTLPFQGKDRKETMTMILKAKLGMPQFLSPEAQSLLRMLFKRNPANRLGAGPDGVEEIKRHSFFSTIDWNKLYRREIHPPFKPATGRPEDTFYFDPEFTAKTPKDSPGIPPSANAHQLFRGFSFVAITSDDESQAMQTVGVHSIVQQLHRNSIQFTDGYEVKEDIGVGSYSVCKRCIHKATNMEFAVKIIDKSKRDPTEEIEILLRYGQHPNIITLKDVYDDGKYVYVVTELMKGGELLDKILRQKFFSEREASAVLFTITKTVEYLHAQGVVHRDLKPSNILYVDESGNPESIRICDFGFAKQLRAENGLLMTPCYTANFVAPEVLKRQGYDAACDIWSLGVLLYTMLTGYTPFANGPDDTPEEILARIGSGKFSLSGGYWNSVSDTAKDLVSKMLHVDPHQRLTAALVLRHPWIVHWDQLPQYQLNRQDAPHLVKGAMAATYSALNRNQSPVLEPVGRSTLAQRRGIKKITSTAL

For the compound `COc1cccc(C(C)NC(=O)c2ccc(-c3ccncc3)s2)c1` (centres undefined), in experiment [1], the Ki is 1.58 µM (active).

Turning to `Cc1ccc(NC(=O)COc2cccc(/C=C3\SC(=S)N(CCC(=O)O)C3=O)c2)cc1Cl`, the IC50 in experiment [2] is > 50 µM (not active); in experiment [3], 12.7 µM (active). In addition, the EC50 at Protein RecA was 19.1 µM (active).

The values are drawn from ChEMBL document CHEMBL1201862, “PubChem BioAssay data set” (2004).
